Data taken from ChEMBL document CHEMBL3885881, “DrugMatrix”.

Species on record: Rattus norvegicus
Assay: DrugMatrix - Regimen: Daily Repeat
Assay type: toxicity, organism-based, Sprague-Dawley
Parameters: regimen Daily Repeat, gender Male, age 6-8 weeks
Details: in vivo, po, route oral GAVAGE, vehicle .5 % CMC; for ABSOLUTE BASOPHIL / ABSOLUTE EOSINOPHIL / ABSOLUTE LYMPHOCYTE / ABSOLUTE MONOCYTE / ABSOLUTE SEGMENTED NEUTROPHIL / BASOPHIL / EOSINOPHIL / ERYTHROCYTE COUNT / HEMATOCRIT / HEMOGLOBIN / LEUKOCYTE COUNT / LYMPHOCYTE / MEAN CORPUSCULAR HEMOGLOBIN / MEAN CORPUSCULAR HEMOGLOBIN CONCENTRATION / MEAN CORPUSCULAR VOLUME / MONOCYTE / NEUTROPHIL / NUCLEATED RED BLOOD CELLS / PLATELET COUNT: tissue Blood; for ALANINE AMINOTRANSFERASE / ALBUMIN / ALKALINE PHOSPHATASE / ASPARTATE AMINOTRANSFERASE / BLOOD UREA NITROGEN / CARBON DIOXIDE / CHLORIDE / CHOLESTEROL / CREATINE PHOSPHOKINASE / CREATININE / GLUCOSE / LACTATE DEHYDROGENASE / LIPASE / PHOSPHORUS / POTASSIUM / SODIUM / TOTAL BILIRUBIN / TOTAL PROTEIN / URIC ACID: tissue Plasma
[1] = 0 mg/kg, 72 h, dose level Control, time 3 day
[2] = 0 mg/kg, 120 h, dose level Control, time 5 day
[3] = 25 mg/kg, 72 h, dose level Low, time 3 day

C[C@](O)(CS(=O)(=O)c1ccc(F)cc1)C(=O)Nc1ccc(C#N)c(C(F)(F)F)c1 [(R)-BICALUTAMIDE]
ABSOLUTE BASOPHIL [1]: 0 CELLS/uL | ABSOLUTE EOSINOPHIL [1]: 171.33 CELLS/uL | ABSOLUTE LYMPHOCYTE [1]: 13776.5 CELLS/uL | ABSOLUTE MONOCYTE [1]: 180.83 CELLS/uL | ABSOLUTE SEGMENTED NEUTROPHIL [1]: 1121.33 CELLS/uL | BASOPHIL [1]: 0% | EOSINOPHIL [1]: 1% | ERYTHROCYTE COUNT [1]: 5.56 x10E6/uL | HEMATOCRIT [1]: 34.75% | HEMOGLOBIN [1]: 13.68 G/DL | LEUKOCYTE COUNT [1]: 15.25 x10E3/uL | LYMPHOCYTE [1]: 90.17% | MEAN CORPUSCULAR HEMOGLOBIN [1]: 24.6 pg | MEAN CORPUSCULAR HEMOGLOBIN CONCENTRATION [1]: 39.4 G/DL | MEAN CORPUSCULAR VOLUME [1]: 62.48 fL | MONOCYTE [1]: 1.17% | NEUTROPHIL [1]: 7.67% | NUCLEATED RED BLOOD CELLS [1]: 0 /100WBC | PLATELET COUNT [1]: 1342 x10E3/uL | ALANINE AMINOTRANSFERASE [1]: 49.67 u/L | ALBUMIN [1]: 4.15 G/DL | ALKALINE PHOSPHATASE [1]: 346.83 u/L | ASPARTATE AMINOTRANSFERASE [1]: 108.17 u/L | BLOOD UREA NITROGEN [1]: 17.33 mg/dL | CARBON DIOXIDE [1]: 25 mmol/L | CHLORIDE [1]: 100.83 MEQ/L | CHOLESTEROL [1]: 66.83 mg/dL | CREATINE PHOSPHOKINASE [1]: 788 u/L | CREATININE [1]: 0.18 mg/dL | GLUCOSE [1]: 151.67 mg/dL | LACTATE DEHYDROGENASE [1]: 982.5 u/L | LIPASE [1]: 10.33 u/L | PHOSPHORUS [1]: 11.23 mg/dL | POTASSIUM [1]: 6.37 MEQ/L | SODIUM [1]: 141.02 MEQ/L | TOTAL BILIRUBIN [1]: 0.18 mg/dL | TOTAL PROTEIN [1]: 5.9 G/DL | URIC ACID [1]: 1.8 mg/dL | ABSOLUTE BASOPHIL [2]: 0 CELLS/uL | ABSOLUTE EOSINOPHIL [2]: 69 CELLS/uL | ABSOLUTE LYMPHOCYTE [2]: 13632.83 CELLS/uL | ABSOLUTE MONOCYTE [2]: 139.83 CELLS/uL | ABSOLUTE SEGMENTED NEUTROPHIL [2]: 1225 CELLS/uL | BASOPHIL [2]: 0% | EOSINOPHIL [2]: 0.33% | ERYTHROCYTE COUNT [2]: 5.52 x10E6/uL | HEMATOCRIT [2]: 33.98% | HEMOGLOBIN [2]: 13.22 G/DL | LEUKOCYTE COUNT [2]: 15.07 x10E3/uL | LYMPHOCYTE [2]: 90.83% | MEAN CORPUSCULAR HEMOGLOBIN [2]: 23.95 pg | MEAN CORPUSCULAR HEMOGLOBIN CONCENTRATION [2]: 38.9 G/DL | MEAN CORPUSCULAR VOLUME [2]: 61.53 fL | MONOCYTE [2]: 0.83% | NEUTROPHIL [2]: 8% | NUCLEATED RED BLOOD CELLS [2]: 0 /100WBC | PLATELET COUNT [2]: 1196 x10E3/uL | ALANINE AMINOTRANSFERASE [2]: 49.17 u/L | ALBUMIN [2]: 4.2 G/DL | ALKALINE PHOSPHATASE [2]: 352.33 u/L | ASPARTATE AMINOTRANSFERASE [2]: 89.67 u/L | BLOOD UREA NITROGEN [2]: 18 mg/dL | CARBON DIOXIDE [2]: 27.67 mmol/L | CHLORIDE [2]: 101 MEQ/L | CHOLESTEROL [2]: 72.83 mg/dL | CREATINE PHOSPHOKINASE [2]: 417.5 u/L | CREATININE [2]: 0.18 mg/dL | GLUCOSE [2]: 150.5 mg/dL | LACTATE DEHYDROGENASE [2]: 517.33 u/L | LIPASE [2]: 9 u/L | PHOSPHORUS [2]: 11.87 mg/dL | POTASSIUM [2]: 6.57 MEQ/L | SODIUM [2]: 143.62 MEQ/L | TOTAL BILIRUBIN [2]: 0.2 mg/dL | TOTAL PROTEIN [2]: 6.08 G/DL | URIC ACID [2]: 1.45 mg/dL | ABSOLUTE BASOPHIL [3]: 0 CELLS/uL | ABSOLUTE EOSINOPHIL [3]: 0 CELLS/uL | ABSOLUTE LYMPHOCYTE [3]: 11565 CELLS/uL | ABSOLUTE MONOCYTE [3]: 208.33 CELLS/uL | ABSOLUTE SEGMENTED NEUTROPHIL [3]: 926.67 CELLS/uL | BASOPHIL [3]: 0% | EOSINOPHIL [3]: 0% | ERYTHROCYTE COUNT [3]: 5.66 x10E6/uL | HEMATOCRIT [3]: 35.2% | HEMOGLOBIN [3]: 13.9 G/DL | LEUKOCYTE COUNT [3]: 12.7 x10E3/uL | LYMPHOCYTE [3]: 91% | MEAN CORPUSCULAR HEMOGLOBIN [3]: 24.57 pg | MEAN CORPUSCULAR HEMOGLOBIN CONCENTRATION [3]: 39.47 G/DL | MEAN CORPUSCULAR VOLUME [3]: 62.23 fL | MONOCYTE [3]: 1.67% | NEUTROPHIL [3]: 7.33% | NUCLEATED RED BLOOD CELLS [3]: 0.33 /100WBC | PLATELET COUNT [3]: 1165 x10E3/uL | ALANINE AMINOTRANSFERASE [3]: 46.33 u/L | ALBUMIN [3]: 4.1 G/DL | ALKALINE PHOSPHATASE [3]: 367.67 u/L | ASPARTATE AMINOTRANSFERASE [3]: 75.67 u/L | BLOOD UREA NITROGEN [3]: 14.33 mg/dL | CARBON DIOXIDE [3]: 27 mmol/L | CHLORIDE [3]: 102.67 MEQ/L | CHOLESTEROL [3]: 80.33 mg/dL | CREATINE PHOSPHOKINASE [3]: 447.67 u/L | CREATININE [3]: 0.21 mg/dL | GLUCOSE [3]: 137.67 mg/dL | LACTATE DEHYDROGENASE [3]: 242 u/L | LIPASE [3]: 10.67 u/L | PHOSPHORUS [3]: 11.97 mg/dL | POTASSIUM [3]: 6.21 MEQ/L | SODIUM [3]: 143.67 MEQ/L | TOTAL BILIRUBIN [3]: 0.2 mg/dL | TOTAL PROTEIN [3]: 5.87 G/DL | URIC ACID [3]: 1.37 mg/dL
